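Cultured in 96-well plates, cells were exposed to test compound for 48 hours across five concentrations. The concentration for 50% growth inhibition is given as GI50.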 Calls of active or inactive are those of the source. No stated cut-off is given here; in the data, active = GI50 up to about 1.1 µM and inactive = higher.

The values that follow come from ChEMBL document CHEMBL1201862, “PubChem BioAssay data set” (2004).

Test systems include MOLT-4; NCI/ADR-RES; U-251; NCI-H522; Malme-3M; MDA-MB-435; HOP-62; OVCAR-4; UACC-257; A549; M14; SK-MEL-28; SW-620; SNB-75; T47D; MDA-MB-231; SK-MEL-5; TK-10; HL-60; SF-295.
Assay in all cases: NCI anticancer screen, dose series, 48 h

On to `Oc1cc(O)c2c(c1)OC(c1ccc(O)c(O)c1)C(OC1(c3cc(O)c(O)c(O)c3)Oc3cc(O)cc(O)c3C(O)C1O)C2` (stereo not given), for which the GI50 in the assay with MOLT-4 was 23.5 µM (inactive); with NCI/ADR-RES, 30.2 µM (inactive); in the assay on U-251 it was 20.8 µM (inactive); in the assay with NCI-H522, 21.4 µM (inactive); with Malme-3M, 87.9 µM (inactive); with MDA-MB-435, 15.7 µM (inactive). Besides, the GI50 in the assay on HOP-62 is 24 µM (inactive); in the assay on OVCAR-4, 26.4 µM (inactive); in the assay on UACC-257, 37.4 µM (inactive); with A549, 27.7 µM (inactive); in the assay with M14, 24.7 µM (inactive); in the assay with SK-MEL-28, > 40.6 µM (inactive). Further, the GI50 with SW-620 was 24.8 µM (inactive); in the assay on SNB-75, 26.4 µM (inactive); in the assay on T47D it was 37.6 µM (inactive); in the assay with MDA-MB-231 it was 19.7 µM (inactive); in the assay with SK-MEL-5 it was 18.3 µM (inactive); with TK-10 it was > 100 µM (inactive). The results for the GI50 in the assay with HL-60 and in the assay on SF-295 were 21.7 µM (inactive) and 33.1 µM (inactive), respectively.

Regarding `CC/C(Cl)=N\OC(=O)Nc1ccc(F)c(Cl)c1`, the GI50 was 1.48 µM (inactive) in the assay with MOLT-4; 19.5 µM (inactive) with NCI/ADR-RES; 17.2 µM (inactive) in the assay on U-251; 1.87 µM (inactive) with NCI-H522; 4.66 µM (inactive) with Malme-3M; 21.2 µM (inactive) with MDA-MB-435. Also, the GI50 in the assay with HOP-62 was 19 µM (inactive); with OVCAR-4 it was 14.5 µM (inactive); with UACC-257, 17.3 µM (inactive); with A549, 21.3 µM (inactive); with M14 it was 2.38 µM (inactive); with SK-MEL-28, 15.6 µM (inactive). Moreover, the GI50 was 2.55 µM (inactive) with SW-620; 12.2 µM (inactive) with SNB-75; 7.89 µM (inactive) with T47D; 20 µM (inactive) with MDA-MB-231; 15.6 µM (inactive) with SK-MEL-5; 17.5 µM (inactive) in the assay on TK-10. Besides, the GI50 with HL-60 was 1.83 µM (inactive); in the assay on SF-295, 18.2 µM (inactive).

Take `Cc1nc2ccccc2n1CCc1nc2ccccc2s1`: the GI50 is 12.9 µM (inactive) in the assay on MOLT-4; 40.6 µM (inactive) in the assay with NCI/ADR-RES; 75 µM (inactive) in the assay with U-251; 15.6 µM (inactive) with NCI-H522; 17.3 µM (inactive) with Malme-3M; 57.8 µM (inactive) with MDA-MB-435. Further, the GI50 was > 100 µM (inactive) in the assay on HOP-62; 42.3 µM (inactive) in the assay with OVCAR-4; 9.95 µM (inactive) with UACC-257; 23.8 µM (inactive) with A549; 33 µM (inactive) in the assay on M14; > 100 µM (inactive) in the assay on SK-MEL-28. In addition, the GI50 in the assay on SW-620 was 68.9 µM (inactive); with SNB-75 it was 78 µM (inactive); in the assay on T47D it was 7.21 µM (inactive); with MDA-MB-231, 39.6 µM (inactive); in the assay with SK-MEL-5, 2.88 µM (inactive); in the assay on TK-10 it was 45.4 µM (inactive). The GI50 is 14.3 µM (inactive) with HL-60 and 8.49 µM (inactive) with SF-295.

Take `COC(=O)C1=C([C@H]2COC(C)(C)O2)[C@H]2C[C@@H]1[C@@H]1OC(C)(C)O[C@@H]12`: the GI50 in the assay on MOLT-4, with NCI/ADR-RES, in the assay with U-251, in the assay on NCI-H522, in the assay on Malme-3M and with MDA-MB-435 was > 100 µM (inactive) in each case. The GI50 with HOP-62, in the assay on OVCAR-4, with UACC-257, in the assay with A549, with M14 and in the assay on SK-MEL-28 was > 100 µM (inactive) in each case. Further, the GI50 with SW-620, in the assay on SNB-75, in the assay on T47D, with MDA-MB-231, in the assay with SK-MEL-5 and with TK-10 was > 100 µM (inactive) in each case. In addition, the GI50 in the assay with HL-60 and in the assay on SF-295 was > 100 µM (inactive) in each case.

Consider `CCOC(=O)c1nc2ccc(C(F)(F)F)cc2nc1Nc1ccc(OC)cc1`, for which the GI50 with MOLT-4 is > 100 µM (inactive); in the assay with NCI/ADR-RES, 63.2 µM (inactive); with U-251, 27.5 µM (inactive); in the assay on NCI-H522, 36.5 µM (inactive); in the assay on Malme-3M, > 100 µM (inactive); in the assay on MDA-MB-435 it was > 100 µM (inactive). Moreover, the GI50 was 24.3 µM (inactive) in the assay on HOP-62; 18.6 µM (inactive) in the assay with OVCAR-4; > 100 µM (inactive) in the assay with UACC-257; 50.1 µM (inactive) in the assay with A549; 84.1 µM (inactive) with M14; > 100 µM (inactive) with SK-MEL-28. In addition, the GI50 with SW-620 is > 100 µM (inactive); in the assay with SNB-75, 93.5 µM (inactive); with T47D, > 100 µM (inactive); in the assay on MDA-MB-231, 17.7 µM (inactive); in the assay with SK-MEL-5, 54.7 µM (inactive); in the assay with TK-10, > 100 µM (inactive). In addition, the figures for the GI50 in the assay with HL-60 and in the assay on SF-295 were > 100 µM (inactive) and 26.9 µM (inactive), respectively.

`CCCC(=O)Nc1cc(/C=C/C(=O)N2CC(CCl)c3c2cc(O)c2[nH]cc(C)c32)n(C)c1` (stereo not given): the GI50 in the assay on MOLT-4 was < 2.5e-05 µM (active); in the assay on NCI/ADR-RES it was 9.64e-05 µM (active); in the assay with U-251 it was < 2.5e-05 µM (active); in the assay on NCI-H522 it was < 2.5e-05 µM (active); with Malme-3M, < 2.5e-05 µM (active); in the assay on MDA-MB-435 it was < 2.5e-05 µM (active). Moreover, the GI50 in the assay on HOP-62, with OVCAR-4, in the assay on UACC-257, with A549, in the assay with M14 and in the assay with SK-MEL-28 was < 2.5e-05 µM (active) in each case. For the same molecule, the GI50 in the assay with SW-620, in the assay with SNB-75, in the assay with T47D, in the assay on MDA-MB-231, in the assay with SK-MEL-5 and with TK-10 was < 2.5e-05 µM (active) each time. The GI50 in the assay on HL-60 and in the assay with SF-295 was < 2.5e-05 µM (active) in each case.

Regarding `COC(=O)c1cc2c(cc1Cl)Sc1nnc(Nc3ccccc3)n1S2(=O)=O`, the GI50 is 2.47 µM (inactive) in the assay on MOLT-4; 8.47 µM (inactive) in the assay on NCI/ADR-RES; 2.76 µM (inactive) in the assay on U-251; 1.68 µM (inactive) in the assay with NCI-H522; 3.03 µM (inactive) in the assay with Malme-3M; 7.48 µM (inactive) in the assay with MDA-MB-435. Also, the GI50 in the assay with HOP-62 is 2.15 µM (inactive); with OVCAR-4, 3.37 µM (inactive); with UACC-257 it was 7.66 µM (inactive); in the assay with A549, 8.47 µM (inactive); with M14, 4.41 µM (inactive); in the assay on SK-MEL-28, 3.15 µM (inactive). Also, the GI50 in the assay on SW-620 is 3.39 µM (inactive); with SNB-75, 5.12 µM (inactive); in the assay on T47D, 1.59 µM (inactive); with MDA-MB-231, 3.98 µM (inactive); in the assay with SK-MEL-5 it was 7.96 µM (inactive); in the assay on TK-10, 2.69 µM (inactive). For the same molecule, the values for the GI50 in the assay with HL-60 and in the assay with SF-295 were 2.77 µM (inactive) and 3.78 µM (inactive), respectively.

For the molecule `CCOP(=O)(OCC)C(=C1C=C(C(C)(C)C)C(=O)C(C(C)(C)C)=C1)P(=O)(OCC)OCC`, the GI50 with MOLT-4 was 2.89 µM (inactive); in the assay with NCI/ADR-RES it was > 10 µM (inactive); with U-251 it was > 10 µM (inactive); in the assay with NCI-H522 it was 2.27 µM (inactive); in the assay on Malme-3M, 1.82 µM (inactive); in the assay on MDA-MB-435, > 5.24 µM (inactive). For the same molecule, the GI50 with HOP-62 was > 10 µM (inactive); in the assay on OVCAR-4, 1.87 µM (inactive); in the assay with UACC-257 it was > 8.15 µM (inactive); in the assay on A549, > 10 µM (inactive); in the assay with M14 it was 1.97 µM (inactive); in the assay on SK-MEL-28 it was > 10 µM (inactive). For the same molecule, the GI50 with SW-620 was 1.89 µM (inactive); in the assay on SNB-75, > 10 µM (inactive); with T47D, 2.13 µM (inactive); with MDA-MB-231 it was > 9.27 µM (inactive); in the assay on SK-MEL-5, > 10 µM (inactive); in the assay with TK-10 it was 3.27 µM (inactive). The GI50 with HL-60 is 3.53 µM (inactive); in the assay with SF-295 it was > 10 µM (inactive).
